How the values were obtained:
HBO-KAT7 = HBO-KAT7 (Homo sapiens, UniProt O95251); assay: Acetyltransferase biochemical assay (AlphaScreen), KAT7
TIP60-KAT5 = TIP60-KAT5 (Homo sapiens, UniProt Q92993); assay: Acetyltransferase biochemical assay (AlphaScreen), KAT5
MOF-KAT8 = target: T1, MOF-KAT8 (Homo sapiens, UniProt Q9H7Z6); assay: biochemical
T1 sequence (Q9H7Z6 with tags, fused parts or gaps): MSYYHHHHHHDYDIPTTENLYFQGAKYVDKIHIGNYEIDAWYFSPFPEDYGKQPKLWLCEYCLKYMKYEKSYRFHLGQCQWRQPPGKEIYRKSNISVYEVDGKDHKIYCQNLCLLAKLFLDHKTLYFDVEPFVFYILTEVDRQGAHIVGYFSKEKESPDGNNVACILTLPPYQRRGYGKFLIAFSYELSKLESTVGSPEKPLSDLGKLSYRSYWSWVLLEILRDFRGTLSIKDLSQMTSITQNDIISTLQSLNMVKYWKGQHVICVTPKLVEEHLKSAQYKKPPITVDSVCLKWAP

[1] = system: acetylation of the histone H3 Lysine 14 marker in U2OS cells; assay: Histone H3 Lysine 14 Acetylation Biomarker Assay; format: cell-based; settings: Homo sapiens, serum free medium, 24 hours incubation, read-out: IC50, inhibition of histone H3 Lysine 14 acetylation
Protocol: Compounds were tested for their ability to inhibit acetylation of the histone H3 Lysine 14 marker in the following assay:
The cell line U2OS was seeded at a density of 3,000 cells per well in 384-well optical quality tissue culture plates in RPMI medium supplemented with 10% foetal bovine serum and 10 mM Hepes. The cells were allowed to adhere for 24 hours under standard culture conditions (37 degree Celsius, 5% CO2). At the end of this period the cells were washed with serum free medium. […] After incubation for 24 hours, the cells were fixed with 4% formaldehyde in PBS for 15 minutes at room temperature, washed with phosphate buffer saline and blocked with blocking buffer containing 0.2% TritonX100 and 2% BSA. Anti-H3K14ac specific antibody (Cell Signalling Technologies) in blocking buffer was added and incubated overnight at 4 degree Celsius. After washing, a secondary antibody labelled with AlexaFluor 488 dye (ThermoFisher) and Hoechst 33342 (1 μg/mL, Life Technologies) were added for 2 hours incubation at room temperature. Plates were washed and read on a PerkinElmer Opera HCS high content imaging platform. Using a Columbus image analysis pipeline, individual nuclei were located by Hoechst 33342 stain and the acetylation level was calculated from the AlexaFluor 488-related intensity in the same area.

[2] = system: acetylation of the histone H3K23 marker in U2OS cells; assay: Histone H3 Lysine 23 Acetylation Biomarker Assay; format: cell-based; settings: Homo sapiens, 24 hours incubation, read-out: IC50, inhibition of histone H3K23 acetylation
Protocol: Compounds were tested for their ability to inhibit acetylation of the histone H3K23 marker in the following assay:
The cell line U2OS was seeded at a density of 9,000 cells per well in 96 well optical quality tissue culture plates in RPMI medium and 10% foetal bovine serum, and allowed to adhere for 24 hours under standard culture conditions (37 degree Celsius, 5% CO2). At the end of this period the medium was aspirated. […] After incubation for 24 hours, the cells were fixed with 3.7% formaldehyde in PBS for 20 minutes at room temperature, washed (5×5 minutes) with phosphate buffer saline containing 0.1% Tween 20 and blocked with Odyssey blocking buffer (LI-COR, Lincoln, Nebr.) containing 0.1% TritonX100. Anti-H3K23ac specific antibody (Abcam ab177275) in Odyssey blocking buffer containing 0.1% Tween 20 was added and incubated for 16 hours at 4 degree Celsius. After washing (as above), a secondary antibody labelled with Alexa647 dye (LifeTechnologies) and Hoechst 33342 (1 μg/mL, SigmaAldrich) were added for 1 hour incubation. Plates were washed as previously and read on a PerkinElmer Phenix high content imaging platform. Using a Columbus image analysis pipeline, individual nuclei were located by Hoechst 33342 stain and the acetylation level was calculated from the Alexa647-related intensity in the same area.

MOZ-KAT6A = MOZ-KAT6A (Homo sapiens, UniProt Q92794, A567V); assay: Acetyltransferase biochemical assay (AlphaScreen), KAT6A
Sequence of MOZ-KAT6A (Q92794 with tags, fused parts or gaps A567V): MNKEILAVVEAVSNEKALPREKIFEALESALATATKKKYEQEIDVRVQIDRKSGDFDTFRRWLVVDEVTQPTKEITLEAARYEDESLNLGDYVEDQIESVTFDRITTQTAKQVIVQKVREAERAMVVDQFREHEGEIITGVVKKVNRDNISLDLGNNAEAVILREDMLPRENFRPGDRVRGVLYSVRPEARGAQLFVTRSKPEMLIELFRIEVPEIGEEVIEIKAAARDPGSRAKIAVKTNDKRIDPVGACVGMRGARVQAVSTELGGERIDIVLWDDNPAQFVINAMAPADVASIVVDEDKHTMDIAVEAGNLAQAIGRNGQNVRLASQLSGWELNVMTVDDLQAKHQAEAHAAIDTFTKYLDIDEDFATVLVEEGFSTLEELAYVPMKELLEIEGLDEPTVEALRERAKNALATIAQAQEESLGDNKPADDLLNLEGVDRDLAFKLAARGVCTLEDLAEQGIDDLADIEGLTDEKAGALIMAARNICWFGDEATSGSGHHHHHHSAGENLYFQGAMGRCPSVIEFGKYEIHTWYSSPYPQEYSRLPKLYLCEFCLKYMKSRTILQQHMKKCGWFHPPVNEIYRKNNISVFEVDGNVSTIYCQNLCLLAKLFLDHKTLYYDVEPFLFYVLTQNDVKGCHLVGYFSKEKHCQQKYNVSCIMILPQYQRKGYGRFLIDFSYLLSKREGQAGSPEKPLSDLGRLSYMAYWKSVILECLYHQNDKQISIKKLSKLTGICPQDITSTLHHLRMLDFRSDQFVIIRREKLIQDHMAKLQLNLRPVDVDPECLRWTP

[3] = system: histone H2A.Z Lysine 7 acetylation marker in U2OS cells; assay: H2A.Z Lysine 7 Acetylation Biomarker Assay; format: cell-based; settings: Homo sapiens, serum free medium, 24 hours incubation, read-out: IC50, inhibition of histone H2A.Z Lysine 7 acetylation
Protocol: Compounds were tested for their ability to inhibit the histone H2A.Z Lysine 7 acetylation marker in the following assay:
The cell line U2OS was seeded at a density of 3,000 cells per well in 384-well optical quality tissue culture plates in RPMI medium supplemented with 10% foetal bovine serum and 10 mM Hepes. The cells were allowed to adhere for 24 hours under standard culture conditions (37 degree Celsius, 5% CO2). At the end of this period the cells were washed with serum free medium. […] 2018, at 30 μM concentration. After incubation for 24 hours, the cells were fixed with 4% formaldehyde in PBS for 15 minutes at room temperature, washed with phosphate buffer saline and blocked with blocking buffer containing 0.2% TritonX100 and 2% BSA. Anti-H2A.ZK7ac specific antibody (Abcam) in blocking buffer was added and incubated overnight at 4 degree Celsius. After washing, a secondary antibody labelled with AlexaFluor 488 dye (ThermoFisher) and Hoechst 33342 (1 μg/mL, Life Technologies) were added for 2 hours incubation at room temperature. Plates were washed and read on a PerkinElmer Opera HCS high content imaging platform. Using a Columbus image analysis pipeline, individual nuclei were located by Hoechst 33342 stain and the acetylation level was calculated from the AlexaFluor 488-related intensity in the same area.

QKF-KAT6B = target: T2, QKF-KAT6B (Homo sapiens, UniProt Q8WYB5); assay: Acetyltransferase biochemical assay (AlphaScreen), KAT6B; settings: 8 nM KAT6B, 1 μM AcCoA, 100 nM histone H3.1
T2 construct: purchased SignalChem K315-381BG
T2 sequence (Q8WYB5 whole entry): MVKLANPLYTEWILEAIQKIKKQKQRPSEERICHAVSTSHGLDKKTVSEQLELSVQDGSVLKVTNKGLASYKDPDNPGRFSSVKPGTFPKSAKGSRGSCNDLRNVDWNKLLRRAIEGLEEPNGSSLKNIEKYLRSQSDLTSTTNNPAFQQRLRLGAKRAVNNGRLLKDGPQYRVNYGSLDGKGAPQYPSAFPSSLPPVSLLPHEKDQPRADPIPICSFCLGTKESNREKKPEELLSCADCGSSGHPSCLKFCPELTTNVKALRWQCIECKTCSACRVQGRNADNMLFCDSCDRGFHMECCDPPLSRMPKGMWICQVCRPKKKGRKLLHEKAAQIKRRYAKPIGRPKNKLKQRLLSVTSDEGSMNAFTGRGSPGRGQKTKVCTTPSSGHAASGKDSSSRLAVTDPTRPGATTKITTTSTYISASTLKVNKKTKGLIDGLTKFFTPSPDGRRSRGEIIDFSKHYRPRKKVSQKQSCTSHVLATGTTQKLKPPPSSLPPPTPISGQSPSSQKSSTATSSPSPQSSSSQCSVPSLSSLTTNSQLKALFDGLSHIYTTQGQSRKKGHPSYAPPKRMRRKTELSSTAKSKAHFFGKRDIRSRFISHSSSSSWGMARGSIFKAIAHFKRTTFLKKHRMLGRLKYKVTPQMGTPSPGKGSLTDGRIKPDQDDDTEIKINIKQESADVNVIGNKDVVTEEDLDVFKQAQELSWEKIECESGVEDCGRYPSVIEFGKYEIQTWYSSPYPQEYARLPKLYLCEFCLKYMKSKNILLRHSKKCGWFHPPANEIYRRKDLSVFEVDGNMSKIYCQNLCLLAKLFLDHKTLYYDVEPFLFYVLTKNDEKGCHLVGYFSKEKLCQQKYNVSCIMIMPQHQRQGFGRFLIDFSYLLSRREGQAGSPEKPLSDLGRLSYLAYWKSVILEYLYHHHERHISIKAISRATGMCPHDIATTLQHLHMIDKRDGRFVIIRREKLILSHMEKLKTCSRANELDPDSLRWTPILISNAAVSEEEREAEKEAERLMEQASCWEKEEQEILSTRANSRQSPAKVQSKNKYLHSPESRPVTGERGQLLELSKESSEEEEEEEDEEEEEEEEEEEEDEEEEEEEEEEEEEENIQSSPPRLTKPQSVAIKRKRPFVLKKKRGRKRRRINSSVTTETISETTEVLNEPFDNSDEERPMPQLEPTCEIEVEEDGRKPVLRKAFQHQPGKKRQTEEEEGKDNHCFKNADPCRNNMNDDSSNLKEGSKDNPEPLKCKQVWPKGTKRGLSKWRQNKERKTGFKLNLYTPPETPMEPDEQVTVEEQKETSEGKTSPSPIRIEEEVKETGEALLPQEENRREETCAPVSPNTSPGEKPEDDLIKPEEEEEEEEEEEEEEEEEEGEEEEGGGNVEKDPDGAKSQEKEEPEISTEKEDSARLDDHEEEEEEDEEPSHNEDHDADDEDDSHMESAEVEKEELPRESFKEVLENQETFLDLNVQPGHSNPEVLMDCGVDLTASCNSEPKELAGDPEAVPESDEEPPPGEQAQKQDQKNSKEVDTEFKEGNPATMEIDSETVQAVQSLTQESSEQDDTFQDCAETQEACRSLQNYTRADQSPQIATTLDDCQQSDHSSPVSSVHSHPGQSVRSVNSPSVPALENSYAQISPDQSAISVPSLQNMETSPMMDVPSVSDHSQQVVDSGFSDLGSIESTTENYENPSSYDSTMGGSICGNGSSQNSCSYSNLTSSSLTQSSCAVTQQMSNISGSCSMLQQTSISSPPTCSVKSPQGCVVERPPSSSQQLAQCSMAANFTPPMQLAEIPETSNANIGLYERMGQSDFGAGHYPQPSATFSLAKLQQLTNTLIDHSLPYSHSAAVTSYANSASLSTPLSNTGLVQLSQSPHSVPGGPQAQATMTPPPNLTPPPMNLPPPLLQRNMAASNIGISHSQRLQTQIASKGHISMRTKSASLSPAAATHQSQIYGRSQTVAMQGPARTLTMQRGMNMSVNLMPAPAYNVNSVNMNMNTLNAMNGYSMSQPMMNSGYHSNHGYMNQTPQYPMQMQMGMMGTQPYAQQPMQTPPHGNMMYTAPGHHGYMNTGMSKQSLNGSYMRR
Text: KAT6B was obtained from SignalChem, catalog ID: K315-381BG

Sequence of HBO-KAT7 (O95251 with tags, fused parts or gaps): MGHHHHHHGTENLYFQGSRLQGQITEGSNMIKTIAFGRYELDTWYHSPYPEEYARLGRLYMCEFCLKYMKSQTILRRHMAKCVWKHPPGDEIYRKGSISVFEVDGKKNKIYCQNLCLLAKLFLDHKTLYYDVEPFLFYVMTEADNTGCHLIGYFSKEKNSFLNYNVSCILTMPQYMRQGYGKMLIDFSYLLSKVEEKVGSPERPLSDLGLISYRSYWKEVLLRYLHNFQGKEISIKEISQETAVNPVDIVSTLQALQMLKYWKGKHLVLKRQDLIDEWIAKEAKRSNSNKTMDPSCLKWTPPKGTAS
Sequence of TIP60-KAT5 (Q92993 with tags, fused parts or gaps isoform Q92993-2): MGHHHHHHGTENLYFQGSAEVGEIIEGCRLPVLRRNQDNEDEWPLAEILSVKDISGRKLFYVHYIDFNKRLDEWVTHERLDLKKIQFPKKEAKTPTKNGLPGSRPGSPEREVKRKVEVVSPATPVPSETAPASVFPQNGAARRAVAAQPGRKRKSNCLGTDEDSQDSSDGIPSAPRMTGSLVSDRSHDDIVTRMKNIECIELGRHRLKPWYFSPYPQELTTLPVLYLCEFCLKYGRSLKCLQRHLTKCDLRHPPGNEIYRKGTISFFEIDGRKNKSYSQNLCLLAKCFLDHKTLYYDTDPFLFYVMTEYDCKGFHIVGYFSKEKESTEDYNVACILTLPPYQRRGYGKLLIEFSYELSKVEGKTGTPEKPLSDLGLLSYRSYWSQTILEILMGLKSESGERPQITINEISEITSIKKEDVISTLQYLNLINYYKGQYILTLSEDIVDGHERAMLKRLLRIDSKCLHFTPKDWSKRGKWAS

| Structure (SMILES) | IC50 (HBO-KAT7) [nM] | IC50 (TIP60-KAT5) [µM] | IC50 (MOF-KAT8) [µM] | IC50 [1] [nM] | IC50 [2] [nM] | IC50 (MOZ-KAT6A) [nM] | IC50 [3] [µM] | IC50 (QKF-KAT6B) [nM] |
| --- | --- | --- | --- | --- | --- | --- | --- | --- |
| CCc1ccc(OC)c(S(=O)(=O)Nc2noc3c(-c4ccccc4)cccc23)c1 [Example 178, 5-Ethyl-2-methoxy-N-(7-phenylbenzo[d]isoxazol-3-yl)benzenesulfonamide] | 482 | 7.54 | 0.77 | 3070 | > 10000 | 1440 | 5.59 | 2460 |
| COCc1cc2onc(NS(=O)(=O)c3ccc(OC)cc3OC)c2cc1C [Example 166, 2,4-dimethoxy-N-(6-(methoxymethyl)-5-methylbenzo[d]isoxazol-3-yl)benzenesulfonamide] | 328 | 3.09 | 2.92 | 3690 | 398 | 123 | 33.3 | 227 |
| COCc1cc(OC)c2c(NS(=O)(=O)c3ccc(OC)c4cccnc34)noc2c1 [Example 162, 5-methoxy-N-(4-methoxy-6-(methoxymethyl)benzo[d]isoxazol-3-yl)quinoline-8-sulfonamide] | 969 | 14 | 10.6 | 1530 | 144 | 147 | 29.5 | 180 |
| COc1cc(-c2ccccc2)cc(OC)c1S(=O)(=O)Nc1noc2cccc(OC)c12 [Example 95, 3,5-Dimethoxy-N-(4-methoxybenzo[d]isoxazol-3-yl)-[1,1-biphenyl]-4-sulfonamide] | 754 | 14 | 6.45 | 9090 | > 10000 | 430 | > 40 | 1640 |
| COCc1cc(OC)c2c(NS(=O)(=O)c3c(OC)cccc3OC)noc2c1 [Example 173, 2,6-Dimethoxy-N-(4-methoxy-6-(methoxymethyl)benzo[d]isoxazol-3-yl)benzenesulfonamide] | 169 | 4.05 | 3.52 | 533 | 20 | 15 | 26.2 | 40 |
| COCc1cc2onc(NS(=O)(=O)c3c(OC)cccc3OC)c2cc1C [Example 97, 2,6-Dimethoxy-N-(6-(methoxymethyl)-5-methylbenzo[d]isoxazol-3-yl)benzenesulfonamide] | 444 | 6.18 |  | 1090 | 45 | 61 | 28 | 49 |
| COc1cccc(OC)c1S(=O)(=O)Nc1noc2cc(-c3ccccc3)cc(OC)c12 [Example 174, 2,6-Dimethoxy-N-(4-methoxy-6-phenylbenzo[d]isoxazol-3-yl)benzenesulfonamide] | 31 | 1.83 |  | 68 | 17 | 13 | 1.54 | 18 |
| COc1cccc2onc(NS(=O)(=O)c3cccc4cc(C)cnc34)c12 [Example 73, N-(4-methoxybenzo[d]isoxazol-3-yl)-3-methyl quinoline-8-sulfonamide] | 508 | 2.16 | 3.46 | 12500 | > 10000 | 4550 | 36.7 | 4050 |

From patent US12365655B2, “Compounds” (CTXT PTY LTD, priority 2018, dated 2025)
